The results in this text go back to patent US9062066B2, “Anti-inflammatory compound having inhibitory activity against multiple tyrosine kinases and pharmaceutical composition containing same” (KOREA INSTITUTE OF SCIENCE AND TECHNOLOGY, priority 2010, dated 2015).

Like-named read-outs stand apart in the source and are kept apart here.

In one assay the test system is mouse skin fibroblast. Put plainly: inhibition of migration of activated fibroblast (scratch wound). The note with it: read-out: Inhibition (%) of migration of activated fibroblast. The class given is cell-based. As for the experimental part: The straight line of regular width was made using a micro pipette tip for a scratch wound on the mono-layer culture, and then the culture was exchanged to DMEM medium and incubated with 10 ng/ml of TGF-β1 in cell culture incubator of 37° C. for 24 hours. The cultured cells were fixed using formalin and stained with crystal violet. Photo-pictures were taken at 100× magnification in five location selected randomly in the scratched wound site of each stained culture dish and then the number of the cells moved into the scratched wound area was counted and averaged.

Assay [1] deals with TNF-α synthesis in J744A.1 macrophages. Put plainly: inhibition of TNF-α synthesis in LPS-activated macrophages (ELISA). Particulars: Macrophage, read-out: Inhibition (%) of TNF-α synthesis. The class given is cell-based. (In general: An ELISA detects its analyte on a solid surface through an enzyme-linked reagent.)
In the next assay the target is DDR2 tyrosine kinase (Homo sapiens (Human), UniProt Q16832). Put plainly: in vitro DDR2 tyrosine kinase inhibition (GST-fused kinase domain). The class given is biochemical. Particulars: read-out: % inhibition against DDR2.
Chain of DDR2 tyrosine kinase (Q16832 563-849): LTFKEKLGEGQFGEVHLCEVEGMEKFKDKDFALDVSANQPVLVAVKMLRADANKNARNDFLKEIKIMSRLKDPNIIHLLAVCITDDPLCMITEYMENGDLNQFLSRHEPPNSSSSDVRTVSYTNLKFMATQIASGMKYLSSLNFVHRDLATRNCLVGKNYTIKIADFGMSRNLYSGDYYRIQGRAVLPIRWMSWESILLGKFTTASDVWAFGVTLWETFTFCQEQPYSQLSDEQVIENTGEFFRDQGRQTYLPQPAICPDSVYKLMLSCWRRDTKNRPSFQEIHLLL
In assay [2] the test system is α-smooth muscle actin protein expression in skin fibroblast cells. Nature of the assay: inhibition of α-smooth muscle actin expression in fibroblast activated by type I collagen and TGF-β1 (western blotting). The format is cell-based, Balb/C mouse. Particulars: Mus musculus, read-out: Inhibition (%) of α-smooth muscle actin increase. An excerpt:
When fibroblast, […] alpha smooth muscle cells are converted to myofibroblast by activation, one of characteristic features is that α-smooth muscle actin protein expression is increased. Also myoblast cells with the increased α-smooth muscle actin expression have a character of an increased migration. These phenomena appear together with the activation of inflammatory cells and the activated myoblast-type cells are known to contribute directly to the pathology of inflammatory diseases. […] In this experiment, the expression level of alpha smooth muscle actin can be quantificated by measuring the density of α-smooth muscle actin protein band with densitometer after developing the X-ray film of chemiluminescence signal in western blotting experiment.
(In general: Immunoblotting shows a protein as a band on a membrane.)

The target in a further assay is c-Src tyrosine kinase (Homo sapiens (Human), UniProt P12931). Put plainly: in vitro c-Src tyrosine kinase inhibition (32P-ATP, poly(D4Y)n substrate). The class given is biochemical. The note with it: read-out: % inhibition against c-Src.
Chain of c-Src tyrosine kinase (P12931 whole entry, looked up): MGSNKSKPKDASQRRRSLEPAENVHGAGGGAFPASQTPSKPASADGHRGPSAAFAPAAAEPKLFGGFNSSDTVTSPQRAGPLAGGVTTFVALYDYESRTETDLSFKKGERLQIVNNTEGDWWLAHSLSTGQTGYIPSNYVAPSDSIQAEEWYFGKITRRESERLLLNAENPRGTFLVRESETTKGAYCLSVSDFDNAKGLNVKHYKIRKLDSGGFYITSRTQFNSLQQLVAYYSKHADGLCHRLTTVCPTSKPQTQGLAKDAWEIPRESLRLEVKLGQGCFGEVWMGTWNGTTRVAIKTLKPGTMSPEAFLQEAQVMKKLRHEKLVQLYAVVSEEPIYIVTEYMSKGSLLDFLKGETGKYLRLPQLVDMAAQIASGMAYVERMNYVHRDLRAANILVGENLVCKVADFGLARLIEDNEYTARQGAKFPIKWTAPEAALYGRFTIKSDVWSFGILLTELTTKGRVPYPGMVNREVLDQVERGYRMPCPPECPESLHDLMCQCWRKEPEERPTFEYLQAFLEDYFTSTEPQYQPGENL
For a further assay, the target named is Hck tyrosine kinase (Homo sapiens (Human), UniProt P08631). Put plainly: in vitro Hck tyrosine kinase inhibition. The class given is biochemical. Particulars: read-out: % inhibition against Hck.
Chain of Hck tyrosine kinase (P08631 whole entry): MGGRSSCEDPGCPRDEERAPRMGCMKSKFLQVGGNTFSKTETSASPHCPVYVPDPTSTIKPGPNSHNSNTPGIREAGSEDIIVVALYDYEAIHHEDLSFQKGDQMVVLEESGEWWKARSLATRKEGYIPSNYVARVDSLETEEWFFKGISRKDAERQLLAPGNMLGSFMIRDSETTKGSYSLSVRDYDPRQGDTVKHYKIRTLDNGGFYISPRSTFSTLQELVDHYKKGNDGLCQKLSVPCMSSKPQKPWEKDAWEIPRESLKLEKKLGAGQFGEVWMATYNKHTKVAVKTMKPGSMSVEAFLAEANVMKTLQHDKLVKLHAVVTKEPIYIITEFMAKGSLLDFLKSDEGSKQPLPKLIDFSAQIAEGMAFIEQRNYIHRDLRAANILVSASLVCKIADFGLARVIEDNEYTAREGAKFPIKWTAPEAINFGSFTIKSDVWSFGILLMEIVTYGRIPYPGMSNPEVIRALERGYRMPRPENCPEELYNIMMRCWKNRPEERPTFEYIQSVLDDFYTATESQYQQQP
The subject of assay [3] is oxazolone-induced skin inflammation of Balb/C mouse ears. Put plainly: mouse skin inflammatory model induced by oxazolone (ear thickness). The class given is in vivo. The note with it: 20 ul of 0.1% compound topical on ear, 36 hours after oxazolone. As for the experimental part: The compounds of the present invention were evaluated for their effective anti-inflammatory activity using a skin inflammatory animal model of 8 weeks old Balb/C mouse ears induced by oxazolone. […] After 4 days, the thickness of ear was measured using a caliper for the thickness value of ear before the induction of inflammation. […] After 36 hours, the thickness of ear was measured for the increased thickness induced by inflammation. […] The average value was obtained in each group (n=4).

The target of another assay is Lyn tyrosine kinase (Homo sapiens (Human), UniProt P07948). Nature of the assay: in vitro Lyn tyrosine kinase inhibition. The format is biochemical. The note with it: read-out: % inhibition against Lyn.
Chain of Lyn tyrosine kinase (P07948 whole entry): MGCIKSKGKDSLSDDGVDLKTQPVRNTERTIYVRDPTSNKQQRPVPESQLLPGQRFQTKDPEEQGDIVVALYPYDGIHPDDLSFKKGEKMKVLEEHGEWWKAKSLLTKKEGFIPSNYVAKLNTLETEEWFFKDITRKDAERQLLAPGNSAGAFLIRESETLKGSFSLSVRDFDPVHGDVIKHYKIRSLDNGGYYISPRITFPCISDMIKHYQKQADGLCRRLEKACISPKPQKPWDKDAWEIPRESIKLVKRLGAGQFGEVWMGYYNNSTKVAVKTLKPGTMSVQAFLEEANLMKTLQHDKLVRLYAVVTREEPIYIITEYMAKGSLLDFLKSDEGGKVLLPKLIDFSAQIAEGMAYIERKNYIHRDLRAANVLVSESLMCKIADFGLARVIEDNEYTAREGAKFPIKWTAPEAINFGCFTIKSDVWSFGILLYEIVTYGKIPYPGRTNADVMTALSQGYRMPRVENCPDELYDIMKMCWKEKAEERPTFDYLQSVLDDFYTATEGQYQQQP
A further assay concerns the target Fgr tyrosine kinase (Homo sapiens (Human), UniProt P09769). Nature of the assay: in vitro Fgr tyrosine kinase inhibition. The format is biochemical. The note with it: read-out: % inhibition against Fgr.
The test system of assay [4] is NO synthesis in J744A.1 macrophage. Put plainly: inhibition of nitric oxide (NO) synthesis in LPS-activated macrophages (Griess reagent). The class given is cell-based. The note with it: read-out: Inhibition (%) of NO synthesis.
The target of a further assay is DDR1 tyrosine kinase (Homo sapiens (Human), UniProt Q08345). Nature of the assay: in vitro DDR1 tyrosine kinase inhibition (GST-fused kinase domain). The format is biochemical. The note with it: read-out: % inhibition against DDR1.
Chain of DDR1 tyrosine kinase (Q08345 610-905): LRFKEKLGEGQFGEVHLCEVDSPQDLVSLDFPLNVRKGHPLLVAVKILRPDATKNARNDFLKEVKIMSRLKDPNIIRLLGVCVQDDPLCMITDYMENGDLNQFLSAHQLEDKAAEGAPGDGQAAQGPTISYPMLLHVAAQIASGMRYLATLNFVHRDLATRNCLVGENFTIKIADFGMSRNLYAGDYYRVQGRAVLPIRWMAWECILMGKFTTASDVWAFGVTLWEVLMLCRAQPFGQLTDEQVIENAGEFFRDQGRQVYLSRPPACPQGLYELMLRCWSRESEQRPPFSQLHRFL
The mark [5] stands for this setting: 0.5 uM compound, 10 ng/ml TGF-β1, 24 hours.
Where [6] appears, read: 10 μM compound, 100 ng/ml LPS, 6 hours.
Setting [7] is: 0.5 uM compound, 10 ng/ml TGF-β1, 48 hours, type I collagen.

Chain of Fgr tyrosine kinase (P09769 whole entry): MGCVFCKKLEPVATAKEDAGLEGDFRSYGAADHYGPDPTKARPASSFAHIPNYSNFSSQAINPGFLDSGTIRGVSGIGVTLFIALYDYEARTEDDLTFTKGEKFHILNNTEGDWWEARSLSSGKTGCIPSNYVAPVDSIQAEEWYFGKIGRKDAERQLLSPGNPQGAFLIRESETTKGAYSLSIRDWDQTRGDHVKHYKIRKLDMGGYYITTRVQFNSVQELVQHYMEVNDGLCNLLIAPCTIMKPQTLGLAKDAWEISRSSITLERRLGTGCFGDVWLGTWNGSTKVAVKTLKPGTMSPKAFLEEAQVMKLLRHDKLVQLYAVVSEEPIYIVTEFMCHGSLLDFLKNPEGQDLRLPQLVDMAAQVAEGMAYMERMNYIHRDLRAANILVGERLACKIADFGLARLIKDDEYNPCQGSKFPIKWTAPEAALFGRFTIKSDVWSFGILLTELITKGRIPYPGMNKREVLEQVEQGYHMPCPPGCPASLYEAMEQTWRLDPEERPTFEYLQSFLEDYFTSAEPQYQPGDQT

In the case of `Cc1cc2cc(Nc3ccnc4cc(C(=O)N5CC[C@@H](O)C5)sc34)ccc2n1C(=O)NC1CC1` [Control compound 1, 5-[2-(3R-hydroxy-pyrrolidine-1-carbonyl)-thieno[3,2-b]pyridine-7-ylamino]-2-methyl-indole-1-carboxyacid cycloprophylamide, reference compound], the inhibition at 0.5 µM in the assay on mouse skin fibroblast (24 h) is 17%; in assay [2] (48 h), 16%. Also, the figures for the inhibition at 10 µM in assay [1] (6 h) and in [4] (24 h) were 16% and 32%, respectively. Also, the inhibition at 1 µM on DDR2 tyrosine kinase, on c-Src tyrosine kinase, at Hck tyrosine kinase, at Lyn tyrosine kinase, on Fgr tyrosine kinase and at DDR1 tyrosine kinase was below 20% each time. Besides, the “Inhibition (%) of increase of ear thickness” value in [3] is 3%.

With `COC[C@@H]1CCCN1C(=O)c1cc2nccc(Nc3ccc4c(c3)cc(C)n4C(=O)NC3CC3)c2s1` [Control compound 2, 5-(2-[(S)-2-(methoxymethyl)pyrrolidine-1-carbonyl]thieno[3,2-b]pyridine-7-ylamino)-2-methylindole-1-carboxyacid cycloprophylamide, reference compound], the values for the inhibition at 0.5 µM (in the assay with mouse skin fibroblast (setting [5]); in assay [2] (setting [7])) were 14% and 22%, respectively. Also, the inhibition at 10 µM in [1] (setting [6]) is 39%; in assay [4] (10 μM compound, LPS, 24 hours), 45%. For the same compound, the inhibition at 1 µM on DDR2 tyrosine kinase (1 uM compound), on c-Src tyrosine kinase (1 uM compound), on Hck tyrosine kinase (1 uM compound), on Lyn tyrosine kinase (1 uM compound), on Fgr tyrosine kinase (1 uM compound) and on DDR1 tyrosine kinase (1 uM compound) was below 20% in each case.

`CCN(CC)C(=O)c1cccc(-c2cc3ncnc(Nc4cccc(O)c4)c3s2)c1` [LCB 03-0054, N,N-diethyl-3-(4-(3-hydroxyphenylamino)thieno[3,2-d]pyrimidin-6-yl)benzamide]: the inhibition at 10 µM in assay [1] (setting [6]) stood at 77%; in [4] (10 μM compound, LPS, 24 hours) it was 92%. Besides, the inhibition at 1 µM on DDR2 tyrosine kinase (1 uM compound) was above 80%; at c-Src tyrosine kinase (1 uM compound), above 60%; on Hck tyrosine kinase (1 uM compound), above 60%; at Lyn tyrosine kinase (1 uM compound) it was above 50%; at Fgr tyrosine kinase (1 uM compound), above 60%; on DDR1 tyrosine kinase (1 uM compound) it was above 80%.

Take `OCC1CCCN1Cc1ccc(-c2cc3ncnc(Nc4cccc(O)c4)c3s2)cc1` (stereo not shown) [LCB 03-0057, 3-(6-(4-((2-(hydroxymethyl)pyrrolidin-1-yl)methyl)phenyl)thieno[3,2-d]pyrimidin-4-ylamino)phenol]: the inhibition at 10 µM in assay [1] (setting [6]) was 64%; in assay [4] (10 μM compound, LPS, 24 hours) it was 87%. For the same compound, the inhibition at 1 µM at DDR2 tyrosine kinase (1 uM compound) is above 80%; on c-Src tyrosine kinase (1 uM compound), above 50%; on Hck tyrosine kinase (1 uM compound), above 50%; at Lyn tyrosine kinase (1 uM compound), above 50%; at Fgr tyrosine kinase (1 uM compound), above 50%; at DDR1 tyrosine kinase (1 uM compound), above 80%.

`CC1CCN(Cc2ccc(-c3cc4ncnc(Nc5cccc(O)c5)c4s3)cc2)CC1` [LCB 03-0058, 3-(6-(4-((4-methylpiperidin-1-yl)methyl)phenyl)thieno[3,2-d]pyrimidin-4-ylamino)phenol]: the inhibition at 10 µM in [1] (setting [6]) came to 58%; in [4] (10 μM compound, LPS, 24 hours), 80%. In addition, the inhibition at 1 µM at DDR2 tyrosine kinase (1 uM compound) is above 80%; on c-Src tyrosine kinase (1 uM compound), above 40%; at Hck tyrosine kinase (1 uM compound), above 40%; on Lyn tyrosine kinase (1 uM compound) it was above 40%; at Fgr tyrosine kinase (1 uM compound), above 40%; at DDR1 tyrosine kinase (1 uM compound), above 80%.

Turning to `Cl.Oc1cccc(Nc2ncnc3cc(-c4ccc(CN5CCC(O)C5)cc4)sc23)c1` (stereo not shown) [LCB 03-0072, 1-(4-(4-(3-hydroxyphenylamino)thieno[3,2-d]pyrimidin-6-yl)benzyl)pyrrolidin-3-ol], the inhibition at 0.5 µM in the assay with mouse skin fibroblast (setting [5]) is 27%; in assay [2] (setting [7]) it was 39%. For the same compound, the inhibition at 10 µM is 59% in [1] (setting [6]) and 76% in assay [4] (10 μM compound, LPS, 24 hours). Moreover, the inhibition at 1 µM at DDR2 tyrosine kinase (1 uM compound) and at DDR1 tyrosine kinase (1 uM compound) was above 80% each time. In assay [3], the “Inhibition (%) of increase of ear thickness” value is listed as 48%.

As for `CCNCc1ccc(-c2cc3ncnc(Nc4cccc(O)c4)c3s2)s1` [LCB 03-0095, 3-(6-(5-((ethylamino)methyl)thiophene-2-yl)thieno[3,2-d]pyrimidin-4-ylamino)phenol], the inhibition at 0.5 µM in the assay with mouse skin fibroblast (setting [5]) was 23%; in assay [2] (setting [7]), 37%. The inhibition at 1 µM at DDR2 tyrosine kinase (1 uM compound) is above 80%; on c-Src tyrosine kinase (1 uM compound), above 60%; at Hck tyrosine kinase (1 uM compound), above 50%; on Lyn tyrosine kinase (1 uM compound) it was above 60%; at Fgr tyrosine kinase (1 uM compound), above 60%; at DDR1 tyrosine kinase (1 uM compound), above 80%. In addition, in [3], the “Inhibition (%) of increase of ear thickness” value is recorded as 43%. Moreover, in [4] (24 h), the inhibition at 10 µM was determined as 59%.

On to `Oc1cccc(Nc2ccnc3cc(-c4ccc(CN5CCCCC5)cc4)sc23)c1` [LCB 03-0097, 3-(2-(4-(piperidin-1-ylmethyl)phenyl)thieno[3,2-b]pyridin-7-ylamino)phenol], for which the inhibition at 0.5 µM was determined as 34% with mouse skin fibroblast (setting [5]) and 45% in assay [2] (setting [7]). Further, the inhibition at 1 µM at DDR2 tyrosine kinase (1 uM compound) is above 80%; at c-Src tyrosine kinase (1 uM compound), above 30%; on Hck tyrosine kinase (1 uM compound), above 30%; at Lyn tyrosine kinase (1 uM compound) it was above 30%; on Fgr tyrosine kinase (1 uM compound) it was above 30%; at DDR1 tyrosine kinase (1 uM compound) it was above 80%.

With `Oc1cccc(Nc2ccnc3cc(-c4ccc(CN5CCNCC5)cc4)sc23)c1` [LCB 03-0098, 3-(2-(4-(piperazin-1-ylmethyl)phenyl)thieno[3,2-b]pyridin-7-ylamino)phenol], the inhibition at 0.5 µM in the assay with mouse skin fibroblast (setting [5]) was 34%; in assay [2] (setting [7]) it was 51%. The inhibition at 1 µM at DDR2 tyrosine kinase (1 uM compound) is above 80%; at c-Src tyrosine kinase (1 uM compound) it was above 30%; on Hck tyrosine kinase (1 uM compound), above 30%; on Lyn tyrosine kinase (1 uM compound), above 30%; at Fgr tyrosine kinase (1 uM compound), above 30%; at DDR1 tyrosine kinase (1 uM compound), above 80%.

In the case of `CCNCc1ccc(-c2cc3nccc(Nc4cccc(O)c4)c3s2)cc1` [LCB 03-0099, 3-(2-(4-((ethylamino)methyl)phenyl)thieno[3,2-b]pyridin-7-ylamino)phenol], the results for the inhibition at 0.5 µM (in the assay on mouse skin fibroblast (setting [5]); in assay [2] (setting [7])) were 29% and 39%, respectively. In addition, the inhibition at 1 µM at DDR2 tyrosine kinase (1 uM compound) is above 80%; on c-Src tyrosine kinase (1 uM compound) it was above 30%; on Hck tyrosine kinase (1 uM compound), above 30%; on Lyn tyrosine kinase (1 uM compound), above 30%; on Fgr tyrosine kinase (1 uM compound) it was above 30%; at DDR1 tyrosine kinase (1 uM compound) it was above 80%.

Turning to `Oc1cccc(Nc2ncnc3cc(-c4cc(CN5CCCC5)cs4)sc23)c1` [LCB 03-0101, 3-(6-(4-(pyrrolidin-1-ylmethyl)thiophene-2-yl)thieno[3,2-d]pyrimidin-4-ylamino)phenol], the results for the inhibition at 10 µM in [1] (6 h) and in [4] (24 h) were 71% and 76%, respectively. Further, the inhibition at 1 µM at DDR2 tyrosine kinase, at c-Src tyrosine kinase, at Hck tyrosine kinase, at Lyn tyrosine kinase, on Fgr tyrosine kinase and at DDR1 tyrosine kinase was above 70% in each case.
